# Results as given in patent US20030044856A1, “Method of determining volume dependent hypertension through protein reduction in phosphorylation or concentration and related apparatus” (priority 1997, published 2003).
# Assays:
# [1] = Systolic blood pressure by tail-cuff method in DOCA-salt hypertensive rats; type: in vivo, rat; settings: mean±SEM
# Experimental: (§1) Male Sprague-Dawley rats, weighing 125-150 g (Charles River, Wilmington, Mass.), were randomly divided into three groups: (1) DOCA-salt group-rats underwent unilateral nephrectomy and were given an initial injection of 12.5 mg of deoxycorticosterone acetate (DOCA) followed by 6.5 mg weekly which was coupled with 1 percent saline as drinking water (Pamani et al. Altered Activity of the Sodium-Potassium Pump in Arteries of Rats with Steroid Hypertension, Clin. Sci. Mol. Med., 55:pp. 41s-43s (1978); (2) Uninephrectomized control group (UNE)-rats underwent unilateral nephrectomy and were given tap water ad libitum; (3) Normal group-normal rats drank tap water ad libitum and were not subjected to surgery. All three groups were maintained on normal rat chow. Systolic blood pressure was measured weekly by the tail-cuff method.
# Referring to FIG. 1, there is shown a plot of systolic blood pressure in mm Hg versus time in days. The study involved ten rats in each of the three DOCA categories: (a) DOCA-salt; (b) UNE-uninephrectomized; and (c) NOR, normal group. The 2K1C study involved eight rats in each of the three groups: (a) 2K1C; (b) SHAM, sham-operated group; and (c) NOR, normal group.
# The systolic blood pressure in the 2K1C rats increased from 121.4±1.7 mm Hg to 137.6±3.0 mm Hg by the first week after surgery and to 173.5±4.4 mm Hg by the 21st day (p<0.001). […]
# [2] = test system: Mr = 72,000 brush border membrane protein; test: Phosphorylation of 72,000 Mr renal brush border membrane protein from treated rats (SDS-PAGE, autoradiography, densitometry); type: in vivo, rat; settings: for relative area units under the peak in the densitometry tracings of autoradiogram of the Mr = 72,000 brush border membrane protein: mean ± SEM
# Experimental: as §1, with “([…]” for “(Pamani”, “method. […] J. Biol. Chem. 257:pp 992-99 (1982). […] Anal Biochem, 72:pp. 248-54 (1976). Autoradiography and densitometry were performed in accordance with […], et al., Phosphorylation of Endogenous Protein in Primate Kidney. […] Biochem. Physiol. 103B:pp 267-73 (1992). […] Data is expressed as mean±SEM, with statistical significance being calculated by Student's t test and the ANOVA test.” for “method.”
# [3] = test system: Mr = 72,000 brush border membrane protein; settings: 10 μM cyclic AMP
# Excerpt: The preparation of the rat renal proximal brush border membrane vesicles was accomplished in the following manner: When the systolic blood pressure in the DOCA and the 2K1C rat groups became elevated compared with each of the control groups (usually in 3-4 weeks), the kidney cortex was removed to prepare the proximal brush border membrane vesicles by a calcium precipitation method as described in Kempson et al., Inhibition of Renal Brush Border Phosphate Transport and Stimulation of Renal Gluconeogenesis by Cyclic AMP and Parathyroid Hormone, Biochem., Pharmacol., 32:pp. 1533-37 (1983). Vesicles were utilized only if there was at least an 8-fold enrichment in gamma-glutamyl transpeptidase activity in the proximal brush border membrane fraction compared to the original cortical homogenate. […]
# The test results reported herein were determined by SDS polyacrylamide gel electrophoresis, autoradiography and densitometry. […] Protein concentration was determined by the method of Bradford using bovine serum albumin as a standard.
# Autoradiography and densitometry were performed in accordance with Laminski, et al., Phosphorylation of Endogenous Protein in Primate Kidney. […] Scan traces were recorded with an Ultroscan XL laser densitometer (Pharmacia, LKB) and analyzed by using the computer GelScan XL Software (Version 2.1, Pharmacia).
SMILES,systolic blood pressure ([1]; 7th day of treatment) [mm Hg],"systolic blood pressure ([1]; 21st day, p<0.001) [mm Hg]","relative area units under the peak in the densitometry tracings of autoradiogram of the Mr = 72,000 brush border membrane protein ([2]; +cAMP (10 μM cyclic AMP in incubation mixture)) [relative area units]","phosphorylation of the Mr=72,000 protein compared with UNE and normal rats ([2]; DOCA group rats, p<0.01)","relative area units under the peak in the densitometry tracings of autoradiogram of the Mr = 72,000 brush border membrane protein ([2]; −cAMP (no cyclic AMP in incubation mixture)) [relative area units]","influence of cAMP on phosphorylation of the Mr=72,000 protein ([3]; membranes from 2K1C, Sham and Normal rats)","effect of addition of cyclic AMP on phosphorylation of the Mr=72,000 protein ([3]; membranes from DOCA, UNE and Normal rats)"
"CC(=O)OCC(=O)[C@H]1CC[C@H]2[C@@H]3CCC4=CC(=O)CC[C@]4(C)[C@H]3CC[C@]12C [DOCA, deoxycorticosterone acetate]",128.9±2.1,188.2±5.3,1.218 ± 0.33,significant attenuation,1.389 ± 0.37,–,–
Nc1ncnc2c1ncn2[C@@H]1O[C@@H]2COP(=O)(O)O[C@H]2[C@H]1O [cyclic AMP],–,–,–,–,–,not influenced,did not affect
